Reference: ChEMBL document CHEMBL5634155, “Design and synthesis of pyrazole derivatives against neutrophilic inflammation” (Eur J Med Chem, 2023)
Active and inactive are the calls of the source. The calls are words filed in the database; no cut-off is given here.

What was measured:
Neutrophil [1] = assay: Inhibition of fMLF/CB-induced human Neutrophil activation assessed as reduction in superoxide anion generation preincubated with compound for 2 mins prior to CB induction for 3 mins followed by fMLF addition by spectrophotometric analysis; type: functional, cell-based
Neutrophil [2] = assay: Inhibition of fMLF/CB-induced human Neutrophil activation assessed as reduction in superoxide anion generation at 10 uM preincubated with compound for 2 mins prior to CB induction for 3 mins followed by fMLF addition by spectrophotometric analysis relative to control; type: functional; settings: 5 min
Neutrophil [3] = assay: Inhibition of fMLF/CB-induced human Neutrophil activation assessed as reduction in elastase release using MeO-Suc-Ala-Ala-Pro-Val-pnitroanilide as substrate incubated for 5 mins; type: functional, cell-based
Neutrophil [4] = assay: Inhibition of fMLF/CB-induced human Neutrophil activation assessed as reduction in elastase release at 10 uM using MeO-Suc-Ala-Ala-Pro-Val-pnitroanilide as substrate incubated for 5 mins relative to control; type: functional
Neutrophil [5] = assay: Inhibition of fMLF/CB-induced human Neutrophil activation assessed as reduction in superoxide anion generation at 1 to 1000 nM preincubated with compound for 2 mins prior to CB induction for 3 mins followed by fMLF addition in presence of KT5720 by spectrophotometric analysis; type: functional, cell-based; settings: dose 1-1000 nM, time 5.0 min
[6] = AUC (0 to infinity) in C57BL/6 mouse at 5 mg/kg, iv measured upto 360 mins by HPLC analysis; type: ADME, organism-based; settings: in vivo
[7] = Half life in C57BL/6 mouse at 5 mg/kg, iv measured upto 360 mins by HPLC analysis; type: ADME, organism-based; settings: in vivo
[8] = Clearance in C57BL/6 mouse at 5 mg/kg, iv measured upto 360 mins by HPLC analysis; type: ADME, organism-based; settings: in vivo
[9] = Apparent volume of distribution in C57BL/6 mouse at 5 mg/kg, iv measured upto 360 mins by HPLC analysis; type: ADME, organism-based; settings: in vivo, 6 h

IC50 (Neutrophil [1]) [µM]	IC50 (Neutrophil [3]) [µM]	AUC(0-inf) [6] [ng·h/mL]	half-life [7] [h]	clearance [8] [mL/min]	Vz [9] [mL]	Compound	inhibition at 10 µM (Neutrophil [2]) [%]	inhibition at 10 µM (Neutrophil [4]) [%]	inhibition (Neutrophil [5])
1.79	> 10					Fc1cccc(Cn2cc(-c3ccccc3)c(-c3cccs3)n2)c1	63.7	33.6	
> 10	> 10					c1ccc(-c2cc(-c3ccccc3)n(CC3CCCCC3)n2)cc1	40.8	8.16	
> 10	> 10					OC(c1ccc(-c2nn(Cc3ccccc3F)c3ccccc23)o1)C(F)(F)F (stereo unspecified)	35.7	10.3	
> 10	> 10					COc1ccccc1C(=O)n1nc(-c2ccc(C=O)o2)c2ccccc21	10.4	31.8	
> 10	> 10					O=Cc1ccc(-c2nn(C(=O)c3ccccc3)c3ccccc23)o1	10.1	18.1	
0.0133	> 10	900	1.03	1.85	165	Fc1ccccc1Cn1nc(-c2cccs2)cc1-c1ccccc1	72.2	38.2	Active
1.05	2.11					Fc1ccccc1Cn1nc(-c2ccco2)c2ccccc21	100	94.5	
	> 10					c1ccc(Cn2cc(-c3ccccc3)c(-c3ccco3)n2)cc1	94.2	101	
1	3.68					O=Cc1ccc(-c2nn(Cc3ccccc3)c3ccccc23)o1	75.2	89.7	
4.93	> 10					O=C(O)c1ccc(-c2nn(CC3CCCCC3)c3ccccc23)o1	73.2	43.6	
0.0751	> 10					c1ccc(Cn2nc(-c3ccco3)cc2-c2ccccc2)cc1	73	46	
> 10	> 10					Fc1cccc(Cn2nc(-c3ccccc3)cc2-c2ccccc2)c1	48.3	17.6	
> 10	> 10					O=C(O)c1ccc(-c2nn(Cc3ccccc3)c3ccccc23)o1	43.4	16.8	
> 10	2.56					CCCCCCCn1nc(-c2ccc(C=O)o2)c2ccccc21	5.88	67.1	
> 10	> 10					COc1ccccc1C(=O)n1nc(-c2ccco2)c2ccccc21	14.5	-0.2	
> 10	> 10					CCCCCCCn1cc(-c2ccccc2)c(-c2cccs2)n1	-5.72	21	
1.55	1.84					O=Cc1ccc(-c2cc(-c3ccccc3)n(Cc3ccccc3)n2)o1	80.8	96.1	
> 10	> 10					CCCCCCCn1cc(-c2ccccc2)c(-c2ccccc2)n1	0.72	16.9	
4.69	> 10					Fc1ccccc1Cn1nc(-c2ccccc2)cc1-c1ccccc1	61.8	35	
	1.08					CCCCCCCn1cc(-c2ccccc2)c(-c2ccco2)n1	102	110	
0.2	2.42					c1ccc(-c2cc(-c3ccco3)nn2CC2CCCCC2)cc1	99.3	109	
> 10	> 10					O=Cc1ccc(-c2nn(C(=O)c3ccccc3F)c3ccccc23)o1	31.8	52.2	
1.47	4.84					Brc1ccccc1Cn1nc(-c2ccco2)c2ccccc21	93.1	78	
0.18	2.54					CCC(=O)c1ccc(-c2nn(Cc3ccccc3F)c3ccccc23)o1	106	93.4	
218	> 10					COc1ccc(-c2nn(Cc3ccccc3)cc2-c2ccccc2)cc1OC	68.2	7.02	
0.18	0.26					c1coc(-c2nn(CC3CCCCC3)c3ccccc23)c1	87.8	73.9	
0.0745	> 10					c1ccc(Cn2nc(-c3cccs3)cc2-c2ccccc2)cc1	70	39.1	

IC50 (Neutrophil [1]) [µM]	IC50 (Neutrophil [3]) [µM]	AUC(0-inf) [6] [ng·h/mL]	half-life [7] [h]	clearance [8] [mL/min]	Vz [9] [mL]	Compound	inhibition at 10 µM (Neutrophil [2]) [%]	inhibition at 10 µM (Neutrophil [4]) [%]	inhibition (Neutrophil [5])
> 10	> 10					CCCCCCCn1nc(-c2ccco2)c2ccccc21	8.38	44.2	
833	1.19					c1ccc(-c2cn(CC3CCCCC3)nc2-c2ccco2)cc1	104	109	
> 10	> 10					COc1ccc(-c2nn(Cc3cccc(F)c3)cc2-c2ccccc2)cc1OC	33.7	16	
1.76	> 10					COc1cccc(Cn2nc(-c3cccs3)cc2-c2ccccc2)c1	63.3	32.8	
0.0762	> 10					Fc1cccc(Cn2nc(-c3cccs3)cc2-c2ccccc2)c1	73.3	35.5	
0.17	1.18					O=Cc1ccc(-c2nn(CC3CCCCC3)c3ccccc23)o1	63.4	102	
0.34	> 10					O=C(c1ccccc1F)n1nc(-c2ccco2)c2ccccc21	69.5	-9.57	
0.17						O=C(c1ccccc1)n1nc(-c2ccco2)c2ccccc21	59.7		
0.0459	3.57					Fc1cccc(Cn2nc(-c3ccco3)cc2-c2ccccc2)c1	94.6	76.6	
0.19	2.27					O=Cc1ccc(-c2nn(Cc3ccccc3Br)c3ccccc23)o1	67.4	106	
145	> 10					c1ccc(Cn2cc(-c3ccccc3)c(-c3cccs3)n2)cc1	65.7	23.5	
164	> 10					COc1cccc(Cn2cc(-c3ccccc3)c(-c3ccccc3)n2)c1	68.6	25	
> 10	> 10					CCCCCCCn1nc(-c2cccs2)cc1-c1ccccc1	16.6	21.1	
1.81	7.58					O=[N+]([O-])c1cccc2c(-c3ccc(CO)o3)nn(Cc3ccccc3)c12	82.6	68.3	
2.32	> 10					c1ccc(Cn2nc(-c3ccco3)c3ccccc32)cc1	71.8	20.4	
	2.05					Fc1cccc(Cn2cc(-c3ccccc3)c(-c3ccco3)n2)c1	90.2	100	
> 10	> 10					c1ccc(-c2cn(CC3CCCCC3)nc2-c2ccccc2)cc1	6.73	8.93	
> 10	> 10					COc1ccc(-c2cc(-c3ccccc3)n(Cc3cccc(F)c3)n2)cc1OC	44.5	38.5	
> 10	> 10					CCCCCCCn1nc(-c2ccccc2)cc1-c1ccccc1	4.58	1.6	
0.694	2.13					CCCCCCCn1nc(-c2ccco2)cc1-c1ccccc1	101	115	
> 10	> 10					COc1ccc(-c2nn(CC3CCCCC3)cc2-c2ccccc2)cc1OC	43.9	19.1	
2.83	> 10					c1ccc(Cn2nc(-c3ccccc3)cc2-c2ccccc2)cc1	63.6	36.8	
201	> 10					c1ccc(Cn2cc(-c3ccccc3)c(-c3ccccc3)n2)cc1	61.6	6.79	
> 10	> 10					COc1cccc(Cn2nc(-c3ccccc3)cc2-c2ccccc2)c1	8.5	1.65	
0.71	5.27					O=Cc1ccc(-c2nn(Cc3ccccc3F)c3ccccc23)o1	78.2	84.7	
> 10	> 10					c1ccc(-c2cc(-c3cccs3)nn2CC2CCCCC2)cc1	39	15.2	
2.03	1.92					CCCCCCCn1nc(-c2ccc(C(=O)O)o2)c2ccccc21	98.7	112	
